In ChEMBL document CHEMBL1201862, “PubChem BioAssay data set” (2004):
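Following 48 hours of exposure in 96-well plates, responses at five concentrations were used to interpolate endpoints linearly. GI50 = concentration required for 50% inhibition of growth.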 Activity calls are given as the source filed them. Rule as the data show it: active = GI50 up to about 1.1 µM and inactive = higher.

Legend:
Experiment in all cases: NCI-60 cell line screen, 48 h
MDA-MB-231 = system: MDA-MB-231
K562 = system: K562
OVCAR-5 = system: OVCAR-5
PC-3 = system: PC-3
SK-OV-3 = system: SK-OV-3
HT-29 = system: HT-29
SN12C = system: SN12C
DU-145 = system: DU-145
U-251 = system: U-251
SK-MEL-2 = system: SK-MEL-2
Malme-3M = system: Malme-3M
SNB-75 = system: SNB-75
CCRF-CEM = system: CCRF-CEM
OVCAR-4 = system: OVCAR-4
LOX IMVI = system: LOX IMVI
MOLT-4 = system: MOLT-4
NCI-H522 = system: NCI-H522
RPMI-8226 = system: RPMI-8226
HCT-15 = system: HCT-15
KM12 = system: KM12

| SMILES | GI50 (MDA-MB-231) | GI50 (K562) | GI50 (OVCAR-5) | GI50 (PC-3) | GI50 (SK-OV-3) | GI50 (HT-29) | GI50 (SN12C) | GI50 (DU-145) | GI50 (U-251) | GI50 (SK-MEL-2) | GI50 (Malme-3M) | GI50 (SNB-75) | GI50 (CCRF-CEM) | GI50 (OVCAR-4) | GI50 (LOX IMVI) | GI50 (MOLT-4) | GI50 (NCI-H522) | GI50 (RPMI-8226) | GI50 (HCT-15) [µM] | GI50 (KM12) |
| --- | --- | --- | --- | --- | --- | --- | --- | --- | --- | --- | --- | --- | --- | --- | --- | --- | --- | --- | --- | --- |
| O=C(CCCc1ccccn1)c1ccccc1 | > 100 µM (inactive) | > 100 µM (inactive) | > 100 µM (inactive) | > 100 µM (inactive) | > 100 µM (inactive) | > 100 µM (inactive) | > 100 µM (inactive) | > 100 µM (inactive) | > 100 µM (inactive) | > 100 µM (inactive) | > 100 µM (inactive) | > 100 µM (inactive) | > 100 µM (inactive) | > 100 µM (inactive) | > 100 µM (inactive) | > 100 µM (inactive) | > 100 µM (inactive) | > 100 µM (inactive) | > 100 |  |
| O=C(c1cscc1CCc1ccccc1)c1cscc1CCc1ccccc1 | > 100 µM (inactive) | > 100 µM (inactive) | > 100 µM (inactive) | > 100 µM (inactive) | > 100 µM (inactive) |  | > 100 µM (inactive) | > 100 µM (inactive) | > 100 µM (inactive) | > 100 µM (inactive) | > 100 µM (inactive) | > 100 µM (inactive) | > 100 µM (inactive) | > 100 µM (inactive) | > 100 µM (inactive) | > 100 µM (inactive) | > 100 µM (inactive) | > 100 µM (inactive) | > 100 | > 100 µM (inactive) |
| Cc1cc(C)c2c(=O)cc(-c3ccccc3)[nH]c2c1 | 8.22 µM (inactive) | 0.57 µM (active) | 10.4 µM (inactive) | 2.06 µM (inactive) | 2.52 µM (inactive) | 1.17 µM (inactive) | 5.25 µM (inactive) | 4.44 µM (inactive) | 3.25 µM (inactive) | 8.17 µM (inactive) | 2.71 µM (inactive) | 3.16 µM (inactive) | 1.49 µM (inactive) | 9.71 µM (inactive) | 2.69 µM (inactive) | 2.96 µM (inactive) | 0.755 µM (active) | 2.02 µM (inactive) | 0.828 | 0.548 µM (active) |
| O=c1oc2ccccc2cc1-c1nc2ccccc2c(=O)[nH]1 | > 100 µM (inactive) | > 100 µM (inactive) | > 100 µM (inactive) | > 100 µM (inactive) | > 100 µM (inactive) | > 100 µM (inactive) | > 100 µM (inactive) | > 100 µM (inactive) | 50.4 µM (inactive) | > 100 µM (inactive) | > 100 µM (inactive) | 69.3 µM (inactive) | > 100 µM (inactive) | > 100 µM (inactive) | > 100 µM (inactive) | > 100 µM (inactive) | > 100 µM (inactive) | > 100 µM (inactive) | > 100 | > 100 µM (inactive) |
| CC[C@@]1(O)C(=O)OCc2c1cc1n(c2=O)Cc2c-1nc1ccccc1c2/C=N\NC(=O)C(N)CC(C)C (stereo not given in full) | 1.25 µM (inactive) | 0.0267 µM (active) | 0.726 µM (active) | < 0.0188 µM (active) | < 0.0212 µM (active) | 0.228 µM (active) | < 0.01 µM (active) | < 0.01 µM (active) | < 0.01 µM (active) | 0.6 µM (active) | 0.107 µM (active) | < 0.01 µM (active) | < 0.01 µM (active) | 0.44 µM (active) | < 0.01 µM (active) | < 0.01 µM (active) | < 0.0175 µM (active) | 0.024 µM (active) | 0.24 | 0.152 µM (active) |
| COc1ccc(N2CN3OC(=O)N(c4ccc(OC)cc4)[C@@]3(c3ccccc3)C2)cc1 | 10 µM (inactive) | 4.02 µM (inactive) | 54.6 µM (inactive) | 10.8 µM (inactive) | 20.8 µM (inactive) | 6.49 µM (inactive) | 31.6 µM (inactive) | 81.5 µM (inactive) | 11.9 µM (inactive) | 5.51 µM (inactive) | 10.8 µM (inactive) | 14.4 µM (inactive) | 6 µM (inactive) | 20.3 µM (inactive) | 23 µM (inactive) | 7.23 µM (inactive) | 10.5 µM (inactive) | 18.7 µM (inactive) | 5.18 | 6.46 µM (inactive) |
| N=C(N)NS(=O)(=O)c1ccc(NC(=O)c2ccc3nc4ccccc4c(Nc4ccc(S(N)(=O)=O)cc4)c3c2)cc1 | > 100 µM (inactive) | > 100 µM (inactive) | > 100 µM (inactive) | > 100 µM (inactive) | > 100 µM (inactive) | > 100 µM (inactive) | > 100 µM (inactive) | > 100 µM (inactive) | > 100 µM (inactive) | > 100 µM (inactive) | > 100 µM (inactive) | > 100 µM (inactive) | > 100 µM (inactive) | > 100 µM (inactive) | > 100 µM (inactive) | > 100 µM (inactive) | > 100 µM (inactive) | > 100 µM (inactive) | > 100 | > 100 µM (inactive) |
| CCOC(=O)/C(C(=O)Nc1cccc(Cl)c1)=C(/N)N1CCCC1 | > 100 µM (inactive) | > 100 µM (inactive) | > 100 µM (inactive) | > 100 µM (inactive) | > 100 µM (inactive) | > 100 µM (inactive) | > 100 µM (inactive) | > 100 µM (inactive) | > 100 µM (inactive) | > 100 µM (inactive) | > 100 µM (inactive) | > 100 µM (inactive) | > 100 µM (inactive) | > 100 µM (inactive) | > 100 µM (inactive) | > 100 µM (inactive) | > 100 µM (inactive) | > 100 µM (inactive) | > 100 | > 100 µM (inactive) |
| O=[N+]([O-])c1cccc2nccc(NCCN3CCOCC3)c12 | 21.7 µM (inactive) | 11.8 µM (inactive) | 21.4 µM (inactive) | 9.64 µM (inactive) | 35.2 µM (inactive) | 13.5 µM (inactive) | 16.3 µM (inactive) | 41.7 µM (inactive) | 22.2 µM (inactive) | 14.7 µM (inactive) | 13.8 µM (inactive) | 16.5 µM (inactive) | 5.55 µM (inactive) | 8.99 µM (inactive) | 13.4 µM (inactive) | 8.43 µM (inactive) | 3.95 µM (inactive) | 7.94 µM (inactive) | 9.35 | 10.5 µM (inactive) |
| CC1OC(=O)C2CC3CCCCC3C(/C=C/C3CCCC(C)N3C)C12 (stereo not given) | > 100 µM (inactive) | > 100 µM (inactive) | > 100 µM (inactive) | > 100 µM (inactive) | > 100 µM (inactive) | > 100 µM (inactive) | > 100 µM (inactive) | > 100 µM (inactive) | > 100 µM (inactive) | 83.2 µM (inactive) | > 100 µM (inactive) | > 95.5 µM (inactive) | > 100 µM (inactive) | > 100 µM (inactive) | > 100 µM (inactive) | > 100 µM (inactive) | > 100 µM (inactive) | > 100 µM (inactive) | > 100 | > 100 µM (inactive) |
| COc1cc(/C=N/c2ccc(Oc3ccc(Cl)cc3)c(Cl)c2)cc(OC)c1OC | 16.8 µM (inactive) |  | 34.7 µM (inactive) | 14.3 µM (inactive) | > 10 µM (inactive) | 22.2 µM (inactive) | 20.9 µM (inactive) | 11.7 µM (inactive) | 18.2 µM (inactive) | 17.8 µM (inactive) | 15.5 µM (inactive) | 23.7 µM (inactive) | 12.4 µM (inactive) | 19.4 µM (inactive) | 16.2 µM (inactive) | 24.9 µM (inactive) | 12.3 µM (inactive) | 18.9 µM (inactive) | 19.5 | 21.3 µM (inactive) |
| CCNc1cc2c3c(c1)CCCN3CCC2 | 6.93 µM (inactive) | 4.01 µM (inactive) | 21.6 µM (inactive) | 16.7 µM (inactive) | 20 µM (inactive) | 6.78 µM (inactive) | 2.87 µM (inactive) | 28.1 µM (inactive) | 12.3 µM (inactive) | 15.3 µM (inactive) | 19.3 µM (inactive) | 18.1 µM (inactive) | 2.38 µM (inactive) | 13 µM (inactive) | 3.1 µM (inactive) | 16.9 µM (inactive) | 21 µM (inactive) | 4.46 µM (inactive) | 19.6 | 15.7 µM (inactive) |
| N=C(N)NC(CC(=O)O)c1ccccc1 (stereo not given) | > 100 µM (inactive) | > 100 µM (inactive) | > 100 µM (inactive) | > 100 µM (inactive) | > 100 µM (inactive) | > 100 µM (inactive) | > 100 µM (inactive) | > 100 µM (inactive) | > 100 µM (inactive) | > 100 µM (inactive) | > 100 µM (inactive) | > 100 µM (inactive) |  | > 100 µM (inactive) | > 100 µM (inactive) |  | > 100 µM (inactive) | > 100 µM (inactive) | > 100 | > 100 µM (inactive) |
| COC(=O)c1ccc2cc(O)c(O)cc2c1 | 60.7 µM (inactive) | 33.9 µM (inactive) | > 88.9 µM (inactive) | 32.4 µM (inactive) | 70.8 µM (inactive) | 37.4 µM (inactive) | 55.2 µM (inactive) | 53.2 µM (inactive) | 29.6 µM (inactive) | 39.5 µM (inactive) | 35.8 µM (inactive) | 90.8 µM (inactive) | 18.9 µM (inactive) | 43.6 µM (inactive) | 36.1 µM (inactive) | 15.5 µM (inactive) | 16.1 µM (inactive) | 29.4 µM (inactive) | 33 | 30.9 µM (inactive) |
